Measurements as given in ChEMBL document CHEMBL5046281, “N-Aryl Mercaptopropionamides as Broad-Spectrum Inhibitors of Metallo-β-Lactamases” (J Med Chem, 2022).

What was measured:
[1] = Selectivity ratio of MIC for antibacterial activity against NDM-7 producing Escherichia coli T2239 clinical isolates to MIC for potentiation of imipenem-induced antibacterial activity against NDM-7 producing Escherichia coli T2239 clinical isolates assessed as imipenem MIC at 128 mg/l; assay type: functional
Klebsiella pneumoniae = test: Selectivity ratio of MIC for antibacterial activity against NDM-1 producing Klebsiella pneumoniae T2301 clinical isolates to MIC for potentiation of imipenem-induced antibacterial activity against NDM-1 producing Klebsiella pneumoniae T2301 clinical isolates assessed as imipenem MIC at 128 mg/l

Compound: O=C(CCS)Nc1cccc(C(=O)O)c1
- Ratio [1]: 16
- Ratio (Klebsiella pneumoniae): 32
